Source: US20050288347A1, “Certain triazole-based compounds, compositions, and uses thereof” (priority 2004, published 2005)
“Also recorded” adds a separate entry of the source.

These compounds were tested against protein kinase (assay: HTS ATP-utilizing enzyme assay, off-chip mobility-shift format (Caliper HTS 250)). Settings: kinase(s) for which the compound exhibits protein kinase inhibitory activity; test compound 10 μM; active = greater than three-sigma from the mean activity of inactive compounds.
Format: biochemical, human
In short: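 Single-point screen at 10 μM compound in HEPES pH 7.5 buffer with Triton X-100 and BSA, 2.5 h at 20–22 °C. Substrate-to-phosphopeptide ratio measured by off-chip microfluidic mobility shift; EDTA wells as 100% and DMSO wells as 0% control, hits called at three-sigma limits.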
`Oc1ccc(-c2nnc(S)n2-c2ccccc2)cc1` [4-(5-mercapto-4-phenyl-4H-1,2,4-triazol-3-yl)phenol] was tested, and the Kinase was “CDK5 and GSK3-α and CDK2-cyclinA”. For `C=CCn1c(S)nnc1-c1cc(OC)c(OC)c(OC)c1` [4-allyl-5-(3,4,5-trimethoxyphenyl)-4H-1,2,4-triazole-3-thiol], the Kinase was “GSK3-β; also recorded: GSK3-α”. For `C=CCn1c(S)nnc1COc1ccc(Cl)cc1` [4-allyl-5-((4-chlorophenoxy)methyl)-4H-1,2,4-triazole-3-thiol], the Kinase was “GSK3-α”. For `COc1ccccc1-c1nnc(S)n1Cc1ccccc1` [4-benzyl-5-(2-methoxyphenyl)-4H-1,2,4-triazole-3-thiol], the Kinase was “AURORA-A”. With `COc1ccccc1OCc1nnc(S)n1Cc1ccccc1` [4-benzyl-5-((2-methoxyphenoxy)methyl)-4H-1,2,4-triazole-3-thiol] the Kinase was “AURORA-A”. With `Sc1nnc(CNc2ccc(Cl)cc2)n1Cc1ccccc1` [4-benzyl-5-((4-chlorophenylamino)methyl)-4H-1,2,4-triazole-3-thiol] the Kinase was “AURORA-A”. In the case of `CCc1ccc(OCc2nnc(S)n2Cc2ccccc2)cc1` [4-benzyl-5-((4-ethylphenoxy)methyl)-4H-1,2,4-triazole-3-thiol], the Kinase is reported as “AKT1”. `Fc1ccc(NCc2nnc(S)n2Cc2ccccc2)cc1` [4-benzyl-5-((4-fluorophenylamino)methyl)-4H-1,2,4-triazole-3-thiol] was tested, and the Kinase was “CHEK2”. `Cc1cccc(-c2nnc(S)n2Cc2ccccc2)c1` [4-benzyl-5-m-tolyl-4H-1,2,4-triazole-3-thiol] was tested, and the Kinase was “GSK3-α”. With `Cc1cccc(OCc2nnc(S)n2C2CCCCC2)c1` [4-cyclohexyl-5-(m-tolyloxymethyl)-4H-1,2,4-triazole-3-thiol] the Kinase was “GSK3-α; also recorded: CHEK1; also recorded: AURORA-A”. For `CCn1c(S)nnc1COc1ccccc1OC` [4-ethyl-5-((2-methoxyphenoxy)methyl)-4H-1,2,4-triazole-3-thiol], the Kinase was “GSK3-α; also recorded: GSK3-β; also recorded: AURORA-A”. In the case of `CCn1c(S)nnc1CNc1cccc(C(F)(F)F)c1` [4-ethyl-5-((3-(trifluoromethyl)phenylamino)methyl)-4H-1,2,4-triazole-3-thiol], the Kinase is reported as “GSK3-α”. For `CCn1c(S)nnc1COc1ccc(OC)cc1` [4-ethyl-5-((4-methoxyphenoxy)methyl)-4H-1,2,4-triazole-3-thiol], the Kinase was “GSK3-β; also recorded: GSK3-α; also recorded: CDK2-cyclinE”. `Cn1c(S)nnc1COc1cccc2ccccc12` [4-methyl-5-((naphthalen-1-yloxy)methyl)-4H-1,2,4-triazole-3-thiol] was tested, and the Kinase was “GSK3-β; also recorded: GSK3-α”. With `Cn1c(S)nnc1COc1ccc2ccccc2c1` [4-methyl-5-((naphthalen-2-yloxy)methyl)-4H-1,2,4-triazole-3-thiol] the Kinase was “GSK3-α”. With `CCCOc1ccc(CCc2nnc(S)n2-c2ccccc2)cc1` [4-phenyl-5-(4-propoxyphenethyl)-4H-1,2,4-triazole-3-thiol] the Kinase was “GSK3-β; also recorded: GSK3-α”. In the case of `Sc1nnc(-c2ccncc2)n1-c1ccccc1` [4-phenyl-5-(pyridin-4-yl)-4H-1,2,4-triazole-3-thiol], the Kinase is reported as “LCK”. For `CCn1c(S)nnc1CCc1nc2ccccc2[nH]1` [5-(2-(1H-benzo[d]imidazol-2-yl)ethyl)-4-ethyl-4H-1,2,4-triazole-3-thiol], the Kinase was “GSK3-β; also recorded: GSK3-α”. For `Cn1c(S)nnc1CCc1nc2ccccc2[nH]1` [5-(2-(1H-benzo[d]imidazol-2-yl)ethyl)-4-methyl-4H-1,2,4-triazole-3-thiol], the Kinase was “GSK3-α; also recorded: GSK3-β”. `Cc1ccc(-n2c(S)nnc2CCc2nc3ccccc3[nH]2)cc1` [5-(2-(1H-benzo[d]imidazol-2-yl)ethyl)-4-p-tolyl-4H-1,2,4-triazole-3-thiol] was tested, and the Kinase was “GSK3-α; also recorded: GSK3-β”. In the case of `C=C(C)Cn1c(S)nnc1-c1ccccc1Br` [5-(2-bromophenyl)-4-(2-methylallyl)-4H-1,2,4-triazole-3-thiol], the Kinase is reported as “PDGFRR-α”. With `C=C(C)Cn1c(S)nnc1-c1ccccc1OC` [5-(2-methoxyphenyl)-4-(2-methylallyl)-4H-1,2,4-triazole-3-thiol] the Kinase was “CDK2-cyclinE”. In the case of `COc1ccc(-n2c(S)nnc2-c2ccccc2OC)cc1` [5-(2-methoxyphenyl)-4-(4-methoxyphenyl)-4H-1,2,4-triazole-3-thiol], the Kinase is reported as “CDK2-cyclinA and CDK2-cyclinE and CDK5”. For `COc1ccccc1-c1nnc(S)n1C` [5-(2-methoxyphenyl)-4-methyl-4H-1,2,4-triazole-3-thiol], the Kinase was “CDK2-cyclinE”. In the case of `COc1ccccc1-c1nnc(S)n1-c1ccc(C)cc1` [5-(2-methoxyphenyl)-4-p-tolyl-4H-1,2,4-triazole-3-thiol], the Kinase is reported as “CDK2-cyclinA and CDK2-cyclinE and CDK5”. In the case of `COc1ccccc1-c1nnc(N)[nH]1` [5-(2-methoxyphenyl)-4H-1,2,4-triazol-3-amine], the Kinase is reported as “AURORA-A; also recorded: CDK2/CyclinE; also recorded: CHEK2”. In the case of `COc1ccc(-c2nnc(S)n2Cc2ccco2)cc1OC` [5-(3,4-dimethoxyphenyl)-4-(furan-2-ylmethyl)-4H-1,2,4-triazole-3-thiol], the Kinase is reported as “MSK2”. With `COc1ccc(-c2nnc(S)n2-c2ccc(C)cc2)cc1` [5-(4-methoxyphenyl)-4-p-tolyl-4H-1,2,4-triazole-3-thiol] the Kinase was “GSK3-β; also recorded: GSK3-α”. In the case of `COc1ccccc1OCc1nnc(S)n1C` [5-((2-methoxyphenoxy)methyl)-4-methyl-4H-1,2,4-triazole-3-thiol], the Kinase is reported as “GSK3-α”.

Same assay, conditions: test compound 10 μM; active = activity greater than three-sigma from the mean of the predominately inactive population for that enzyme
In the case of `CCC(c1ccccc1)c1nnc(SCc2ccc(C(=O)O)cc2)[nH]1` (stereo not drawn) [4-((5-(1-phenylpropyl)-4H-1,2,4-triazol-3-ylthio)methyl)benzoic acid], the “protein kinase against which the compound exhibits inhibitory activity (Table 3)” value is reported as “AURORA-A”. `Clc1ccc(-c2nnc(SCc3ccncc3)[nH]2)cc1Cl` [4-((5-(3,4-dichlorophenyl)-4H-1,2,4-triazol-3-ylthio)methyl)pyridine] was tested, and the “protein kinase against which the compound exhibits inhibitory activity (Table 3)” value was “FLT-3; also recorded: GSK3-β”. For `O=C(O)c1ccc(CSc2nnc(-c3cccc(Cl)c3)[nH]2)cc1` [4-((5-(3-chlorophenyl)-4H-1,2,4-triazol-3-ylthio)methyl)benzoic acid], the “protein kinase against which the compound exhibits inhibitory activity (Table 3)” value was “FLT-3; also recorded: DYRK2; also recorded: AURORA-A”. For `FC(F)(F)Oc1ccc(-c2nnc(SCc3ccncc3)[nH]2)cc1` [4-((5-(4-(trifluoromethoxy)phenyl)-4H-1,2,4-triazol-3-ylthio)methyl)pyridine], the “protein kinase against which the compound exhibits inhibitory activity (Table 3)” value was “FLT-3; also recorded: c-TAK1; also recorded: GSK3-β”. For `COc1ccc(-c2nnc(SCc3ccncc3)[nH]2)cc1` [4-((5-(4-methoxyphenyl)-4H-1,2,4-triazol-3-ylthio)methyl)pyridine], the “protein kinase against which the compound exhibits inhibitory activity (Table 3)” value was “FLT-3; also recorded: DYRK2; also recorded: GSK3-α”. In the case of `O=[N+]([O-])c1ccc(-c2nnc(SCc3ccncc3)[nH]2)cc1` [4-((5-(4-nitrophenyl)-4H-1,2,4-triazol-3-ylthio)methyl)pyridine], the “protein kinase against which the compound exhibits inhibitory activity (Table 3)” value is reported as “FLT-3; also recorded: GSK3-β; also recorded: GSK3-α”. In the case of `O=C(O)c1ccc(CSc2nnc(-c3cccnc3)[nH]2)cc1` [4-((5-(pyridin-3-yl)-4H-1,2,4-triazol-3-ylthio)methyl)benzoic acid], the “protein kinase against which the compound exhibits inhibitory activity (Table 3)” value is reported as “AURORA-A; also recorded: DYRK2”. With `O=C(O)c1ccc(CSc2nnc(-c3cccs3)[nH]2)cc1` [4-((5-(thiophen-2-yl)-4H-1,2,4-triazol-3-ylthio)methyl)benzoic acid] the “protein kinase against which the compound exhibits inhibitory activity (Table 3)” value was “DYRK2; also recorded: AURORA-A; also recorded: FLT-3”. `c1csc(-c2nnc(SCc3ccncc3)[nH]2)c1` [4-((5-(thiophen-2-yl)-4H-1,2,4-triazol-3-ylthio)methyl)pyridine] was tested, and the “protein kinase against which the compound exhibits inhibitory activity (Table 3)” value was “DYRK2; also recorded: AURORA-A; also recorded: FLT-3”. `Cc1cccc(-c2nnc(SCc3ccc(C(=O)O)cc3)[nH]2)c1` [4-((5-m-tolyl-4H-1,2,4-triazol-3-ylthio)methyl)benzoic acid] was tested, and the “protein kinase against which the compound exhibits inhibitory activity (Table 3)” value was “FLT-3; also recorded: DYRK2; also recorded: AURORA-A”. For `CC(C)(C)c1nnc(SCc2ccncc2)[nH]1` [4-((5-tert-butyl-4H-1,2,4-triazol-3-ylthio)methyl)pyridine], the “protein kinase against which the compound exhibits inhibitory activity (Table 3)” value was “GSK3-α”. In the case of `CCc1nnc(SCc2ccccc2)n1Cc1ccc2c(c1)OCO2` [4-(benzo[d][1,3]dioxol-5-ylmethyl)-3-(benzylthio)-5-ethyl-4H-1,2,4-triazole], the “protein kinase against which the compound exhibits inhibitory activity (Table 3)” value is reported as “GSK3-β; also recorded: GSK3-α”. For `CC(C)=CCSc1nnc(C)n1Cc1ccco1` [4-(furan-2-ylmethyl)-3-methyl-5-(3-methylbut-2-enylthio)-4H-1,2,4-triazole], the “protein kinase against which the compound exhibits inhibitory activity (Table 3)” value was “GSK3-β; also recorded: GSK3-α”. For `C=CCn1c(CCC2CCCC2)nnc1SCC=C(C)C` [4-allyl-3-(2-cyclopentylethyl)-5-(3-methylbut-2-enylthio)-4H-1,2,4-triazole], the “protein kinase against which the compound exhibits inhibitory activity (Table 3)” value was “DYRK2”. `Cc1nnc(SCc2ccccc2)n1Cc1ccccc1` [4-benzyl-3-(benzylthio)-5-methyl-4H-1,2,4-triazole] was tested, and the “protein kinase against which the compound exhibits inhibitory activity (Table 3)” value was “GSK3-β; also recorded: GSK3-α”. `CSc1nnc(COc2ccccc2C)n1Cc1ccccc1` [4-benzyl-3-(methylthio)-5-(o-tolyloxymethyl)-4H-1,2,4-triazole] was tested, and the “protein kinase against which the compound exhibits inhibitory activity (Table 3)” value was “MSK2”. For `CCn1c(COc2ccc(C)cc2)nnc1SCc1ccc(C)cc1` [4-ethyl-3-(4-methylbenzylthio)-5-(p-tolyloxymethyl)-4H-1,2,4-triazole], the “protein kinase against which the compound exhibits inhibitory activity (Table 3)” value was “AURORA-A”. In the case of `CCn1c(COc2cccc3ccccc23)nnc1SCC(C)C` [4-ethyl-3-(isobutylthio)-5-((naphthalen-1-yloxy)methyl)-4H-1,2,4-triazole], the “protein kinase against which the compound exhibits inhibitory activity (Table 3)” value is reported as “c-TAK1 and CDK1”. In the case of `Cc1ccc(CSc2nnc(-c3ccccc3C)n2C)cc1` [4-methyl-3-(4-methylbenzylthio)-5-o-tolyl-4H-1,2,4-triazole], the “protein kinase against which the compound exhibits inhibitory activity (Table 3)” value is reported as “AKT1”.
